# Data from PubChem BioAssay AID1919009 (Molecular Pharmacology Branch, DTP, NCI, 2023).
# Test system: K24384-001-R-PDC complex spheroid growth
# Experiment: Anticancer human tumor K24384-001-R-PDC patient-derived pancreatic adenocarcinoma cell line growth inhibition [AhR]
# Settings: for IC50: curve of first compound; for viability, T/C: stronger effect = lower value
# Outline: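 Complex tumor spheroids co-cultured with HUVEC and human MSC stroma; AhR antagonists tested in combination with standard-of-care and investigational agents. Top concentration at or near clinical Cmax (else 10 microM), half-log dilutions; growth expressed as percent test/control.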
# [1] = second compound 0.1 µM, first compound 0.00316 µM
# [2] = second compound 0.1 µM, first compound 0.01 µM
# [3] = second compound 0.1 µM, first compound 0.0316 µM
# [4] = second compound 0.1 µM, first compound 0.1 µM
# [5] = second compound 0.316 µM, first compound 0.00316 µM
# [6] = second compound 0.316 µM, first compound 0.01 µM
# [7] = second compound 0.316 µM, first compound 0.0316 µM
# [8] = second compound 0.316 µM, first compound 0.1 µM
# [9] = second compound 1 µM, first compound 0.00316 µM
# [10] = second compound 1 µM, first compound 0.01 µM
# [11] = second compound 1 µM, first compound 0.0316 µM
# [12] = second compound 1 µM, first compound 0.1 µM
# [13] = second compound 3.16 µM, first compound 0.00316 µM
# [14] = second compound 3.16 µM, first compound 0.01 µM
# [15] = second compound 3.16 µM, first compound 0.0316 µM
# [16] = second compound 3.16 µM, first compound 0.1 µM
# [17] = second compound 10 µM, first compound 0.00316 µM
# [18] = second compound 10 µM, first compound 0.01 µM
# [19] = second compound 10 µM, first compound 0.0316 µM
# [20] = second compound 10 µM, first compound 0.1 µM
# [21] = second compound 0.1 µM, first compound 0.316 µM
# [22] = second compound 0.1 µM, first compound 1 µM
# [23] = second compound 0.1 µM, first compound 3.16 µM
# [24] = second compound 0.1 µM, first compound 10 µM
# [25] = second compound 0.316 µM, first compound 0.316 µM
# [26] = second compound 0.316 µM, first compound 1 µM
# [27] = second compound 0.316 µM, first compound 3.16 µM
# [28] = second compound 0.316 µM, first compound 10 µM
# [29] = second compound 1 µM, first compound 0.316 µM
# [30] = second compound 1 µM, first compound 1 µM
# [31] = second compound 1 µM, first compound 3.16 µM
# [32] = second compound 1 µM, first compound 10 µM
# [33] = second compound 3.16 µM, first compound 0.316 µM
# [34] = second compound 3.16 µM, first compound 1 µM
# [35] = second compound 3.16 µM, first compound 3.16 µM
# [36] = second compound 3.16 µM, first compound 10 µM
# [37] = second compound 10 µM, first compound 0.316 µM
# [38] = second compound 10 µM, first compound 1 µM
# [39] = second compound 10 µM, first compound 3.16 µM
# [40] = second compound 10 µM, first compound 10 µM
# 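For viability, T/C in this document: percent of DMSO vehicle-treated spheroid viability set as 100%.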
Compound,IC50 (second compound 0.1 µM) [nM],IC50 (second compound 0.316 µM) [nM],IC50 (second compound 1 µM) [nM],IC50 (second compound 3.16 µM) [nM],IC50 (second compound 10 µM) [nM],"viability, T/C [3] [%]","viability, T/C [4] [%]","viability, T/C [7] [%]","viability, T/C [8] [%]","viability, T/C [11] [%]","viability, T/C [12] [%]","viability, T/C [15] [%]","viability, T/C [16] [%]","viability, T/C [19] [%]","viability, T/C [20] [%]","viability, T/C [21] [%]","viability, T/C [22] [%]","viability, T/C [25] [%]","viability, T/C [26] [%]","viability, T/C [29] [%]",further results
CC[C@@]1(O)C(=O)OCc2c1cc1n(c2=O)Cc2cc3c(CN(C)C)c(O)ccc3nc2-1 + Cc1cncc(-c2nc(NCCc3c[nH]c4ccccc34)c3ncn(C(C)C)c3n2)c1,42.4,42.2,30.7,> 100,< 0.316,55.5,37.4,51.6,38.2,49.1,47,52,49.4,5.07,6.81,,,,,,"viability, T/C (second compound 0.1 µM, first compound 0.000316 µM): 97.6%; viability, T/C (second compound 0.1 µM, first compound 0.001 µM): 92.5%; viability, T/C [1]: 81.2%; viability, T/C [2]: 67.5%; viability, T/C (second compound 0.316 µM, first compound 0.000316 µM): 118%; viability, T/C (second compound 0.316 µM, first compound 0.001 µM): 100%; viability, T/C [5]: 87.9%; viability, T/C [6]: 73.9%; viability, T/C (second compound 1 µM, first compound 0.000316 µM): 91.3%; viability, T/C (second compound 1 µM, first compound 0.001 µM): 111%; viability, T/C [9]: 95.5%; viability, T/C [10]: 72.4%; viability, T/C (second compound 3.16 µM, first compound 0.000316 µM): 84.3%; viability, T/C (second compound 3.16 µM, first compound 0.001 µM): 93.8%; viability, T/C [13]: 86.4%; viability, T/C [14]: 59.3%; viability, T/C (second compound 10 µM, first compound 0.000316 µM): 12.7%; viability, T/C (second compound 10 µM, first compound 0.001 µM): 10.1%; viability, T/C [17]: 14.5%; viability, T/C [18]: 7.56%"
COc1cc(C2c3cc4c(cc3C(OC3OC5COC(C)OC5C(O)C3O)C3COC(=O)C23)OCO4)cc(OC)c1O (stereo not given) + Cc1cncc(-c2nc(NCCc3c[nH]c4ccccc34)c3ncn(C(C)C)c3n2)c1,563,722,1650,806,< 31.6,88.4,109,101,107,101,90.2,105,81.8,13.1,15.2,62.5,41.3,68.1,47.2,81.3,"viability, T/C [23]: 40%; viability, T/C [24]: 31.1%; viability, T/C [27]: 35.4%; viability, T/C [28]: 33.8%; viability, T/C [30]: 54.8%; viability, T/C [31]: 42.1%; viability, T/C [32]: 35.2%; viability, T/C [33]: 86.4%; viability, T/C [34]: 41.2%; viability, T/C [35]: 37.1%; viability, T/C [36]: 30.2%; viability, T/C [37]: 13.7%; viability, T/C [38]: 5.82%; viability, T/C [39]: 6.89%; viability, T/C [40]: 5.29%"
COc1cccc2c1C(=O)c1c(O)c3c(c(O)c1C2=O)CC(O)(C(=O)CO)CC3OC1CC(N)C(O)C(C)O1 (stereo not given) + Cc1cncc(-c2nc(NCCc3c[nH]c4ccccc34)c3ncn(C(C)C)c3n2)c1,43.2,< 31.6,42.2,< 31.6,< 31.6,56.2,32.3,43.8,39.4,53.4,39.8,41.2,35.8,6.65,10.3,22,6.38,18.6,4.66,14.4,"viability, T/C [23]: 2.85%; viability, T/C [24]: 7.5%; viability, T/C [27]: 4.69%; viability, T/C [28]: 7.35%; viability, T/C [30]: 4.5%; viability, T/C [31]: 2.69%; viability, T/C [32]: 5.17%; viability, T/C [33]: 10.2%; viability, T/C [34]: 2.01%; viability, T/C [35]: 3.75%; viability, T/C [36]: 5.63%; viability, T/C [37]: 4.38%; viability, T/C [38]: 1.31%; viability, T/C [39]: 1.89%; viability, T/C [40]: 2.29%"
Nc1ccn(C2OC(CO)C(O)C2(F)F)c(=O)n1 (stereo not given) + Cc1cncc(-c2nc(NCCc3c[nH]c4ccccc34)c3ncn(C(C)C)c3n2)c1,507,636,928,3070,< 31.6,73.7,74.8,104,79.1,98.1,111,117,114,13.9,11.2,51.2,42.9,50.8,51.1,74.2,"viability, T/C [23]: 32.4%; viability, T/C [24]: 24.5%; viability, T/C [27]: 35.1%; viability, T/C [28]: 19.6%; viability, T/C [30]: 50.4%; viability, T/C [31]: 41.6%; viability, T/C [32]: 29.2%; viability, T/C [33]: 83.9%; viability, T/C [34]: 70.1%; viability, T/C [35]: 51.7%; viability, T/C [36]: 31.2%; viability, T/C [37]: 13.6%; viability, T/C [38]: 8.91%; viability, T/C [39]: 10.4%; viability, T/C [40]: 10.4%"
Nc1ncn(C2CC(O)C(CO)O2)c(=O)n1 (stereo not given) + Cc1cncc(-c2nc(NCCc3c[nH]c4ccccc34)c3ncn(C(C)C)c3n2)c1,> 1000,> 1000,> 1000,> 1000,< 3.16,92.8,77.5,95.8,77.7,103,82.5,87.8,66.8,14.8,10.8,62.8,51.1,72.2,63.6,99.4,"viability, T/C [1]: 83.2%; viability, T/C [2]: 97.6%; viability, T/C [5]: 91.1%; viability, T/C [6]: 101%; viability, T/C [9]: 80.2%; viability, T/C [10]: 101%; viability, T/C [30]: 66%; viability, T/C [13]: 83.1%; viability, T/C [14]: 100%; viability, T/C [33]: 67.9%; viability, T/C [34]: 70.2%; viability, T/C [17]: 13.3%; viability, T/C [18]: 14.3%; viability, T/C [37]: 8.89%; viability, T/C [38]: 11.4%"
